Some test systems named below: 786-0; A549; BT-549; EKVX; HOP-92; HT-29; K562; MCF7; MDA-MB-231; MOLT-4; Malme-3M; NCI-H23; RPMI-8226; SK-MEL-28; SNB-19; SR; U-251; UACC-62; UO-31; COLO 205.
Holding throughout (assay): growth of human tumour cells (NCI), 48 h

Each structure is given as a SMILES string.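 Each compound was tested at five concentrations against cells in 96-well plates for 48 hours. At the GI50, growth is halved.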 Activity calls are given as the source filed them. No stated cut-off is given here; in the data, active = GI50 up to about 1.1 µM and inactive = higher. A value given as a limit tells only on which side of the number the result lay.

Consider `Cc1nc2ccccc2c(=O)n1NC(=O)c1ccccc1[N+](=O)[O-]`, for which the GI50 is > 100 µM (inactive) in the assay with 786-0; > 100 µM (inactive) in the assay with A549; > 100 µM (inactive) with BT-549; 71.4 µM (inactive) with EKVX; > 100 µM (inactive) in the assay with HOP-92; > 100 µM (inactive) in the assay on HT-29. The GI50 in the assay with K562, in the assay on MCF7, in the assay with MDA-MB-231, in the assay on MOLT-4, with Malme-3M and with NCI-H23 was > 100 µM (inactive) in each case. Moreover, the GI50 with RPMI-8226, with SK-MEL-28, with SNB-19, in the assay on SR, in the assay on U-251 and with UACC-62 was > 100 µM (inactive) in each case. For the same compound, the GI50 with UO-31 is > 100 µM (inactive).

In the case of `COc1ccc(/C=C\c2cc(OC)c(OC)c(OC)c2)cc1OC(=O)CC(N)C(=O)O` (stereo not drawn), the GI50 was 0.0111 µM (active) with 786-0; 0.00449 µM (active) in the assay with A549; 0.00646 µM (active) with BT-549; 0.635 µM (active) in the assay with COLO 205; 34.8 µM (inactive) with EKVX; 0.00052 µM (active) in the assay with HOP-92. Moreover, the GI50 with HT-29 is 0.865 µM (active); with K562 it was 0.000321 µM (active); in the assay on MCF7, 0.00733 µM (active); in the assay on MDA-MB-231, 0.00119 µM (active); in the assay with MOLT-4, 0.00366 µM (active); in the assay on Malme-3M, 0.00258 µM (active). The GI50 in the assay with NCI-H23 was 0.0021 µM (active); in the assay on RPMI-8226 it was 0.00148 µM (active); in the assay on SK-MEL-28 it was 0.000597 µM (active); in the assay on SNB-19 it was 0.0118 µM (active); in the assay with SR it was 0.00577 µM (active); with U-251 it was 0.00262 µM (active). Further, the values for the GI50 in the assay on UACC-62 and with UO-31 were 0.00113 µM (active) and 0.00759 µM (active), respectively.

On to `O=C1C2CCCCC2C(=O)N1n1c(Cc2ccccc2)n[nH]c1=O` (stereo not drawn), for which the GI50 in the assay on 786-0, with A549, with BT-549, in the assay on COLO 205, in the assay with EKVX and in the assay with HOP-92 was > 100 µM (inactive) in each case. The GI50 with HT-29, in the assay with K562, in the assay on MCF7, with MDA-MB-231, in the assay on MOLT-4 and with Malme-3M was > 100 µM (inactive) each time. The GI50 with NCI-H23, in the assay on RPMI-8226, in the assay on SNB-19, in the assay on SR, in the assay with U-251 and in the assay on UACC-62 was > 100 µM (inactive) in each case. In addition, the GI50 in the assay on UO-31 was > 100 µM (inactive).

As to `COc1ccc(/C=N/n2c(-c3ccccc3)n[nH]c2=O)c(OC)c1`, the GI50 was 30.5 µM (inactive) in the assay with 786-0; 36.7 µM (inactive) in the assay on A549; 4.41 µM (inactive) in the assay on BT-549; > 100 µM (inactive) with COLO 205; 38.5 µM (inactive) in the assay on EKVX; 36.5 µM (inactive) in the assay with HOP-92. Moreover, the GI50 in the assay on HT-29 is 26.6 µM (inactive); in the assay with K562 it was > 100 µM (inactive); in the assay on MCF7 it was 49.4 µM (inactive); with MDA-MB-231 it was 51.5 µM (inactive); in the assay with MOLT-4, > 100 µM (inactive); in the assay with Malme-3M, > 100 µM (inactive). The GI50 in the assay on NCI-H23 was 39.4 µM (inactive); in the assay with RPMI-8226 it was > 100 µM (inactive); in the assay with SK-MEL-28, > 100 µM (inactive); in the assay with SNB-19, 1.13 µM (inactive); in the assay on SR, > 100 µM (inactive); in the assay on U-251, 40.6 µM (inactive). Further, the GI50 is 43.9 µM (inactive) in the assay with UACC-62 and 24.4 µM (inactive) with UO-31.

As for `O=c1c2cccnc2[nH]c2ccc3scnc3c12`, the GI50 with 786-0 was 5.58 µM (inactive); in the assay with A549, 3.96 µM (inactive); in the assay on BT-549, > 10 µM (inactive); with COLO 205 it was 5.12 µM (inactive); in the assay with EKVX, > 10 µM (inactive); in the assay with HOP-92, 8.17 µM (inactive). The GI50 in the assay on HT-29 is 4.72 µM (inactive); with MCF7, > 10 µM (inactive); with MDA-MB-231, > 10 µM (inactive); in the assay with MOLT-4 it was 4.34 µM (inactive); in the assay on Malme-3M, > 10 µM (inactive); with NCI-H23, > 10 µM (inactive). Further, the GI50 is > 10 µM (inactive) with RPMI-8226; > 10 µM (inactive) with SK-MEL-28; > 10 µM (inactive) in the assay on SNB-19; 4.32 µM (inactive) in the assay with SR; > 10 µM (inactive) in the assay with U-251; > 10 µM (inactive) with UACC-62.

With `COC(=O)C(/C(=N/N)C(=O)Nc1cc(Cl)c(Cl)cc1Cl)c1nc2ccc(Cl)cc2nc1O` (stereo not drawn), the GI50 with 786-0 was > 100 µM (inactive); in the assay with A549 it was > 100 µM (inactive); in the assay on BT-549, > 100 µM (inactive); in the assay with EKVX it was 29.1 µM (inactive); in the assay with HOP-92, > 100 µM (inactive); in the assay with HT-29, > 100 µM (inactive). The GI50 is > 100 µM (inactive) in the assay with K562; > 100 µM (inactive) with MCF7; > 100 µM (inactive) in the assay with MDA-MB-231; 0.0515 µM (active) in the assay on MOLT-4; > 100 µM (inactive) in the assay on Malme-3M; > 100 µM (inactive) in the assay on NCI-H23. Besides, the GI50 in the assay with RPMI-8226 is > 100 µM (inactive); in the assay with SK-MEL-28, > 100 µM (inactive); with SR it was 87.1 µM (inactive); in the assay on U-251, > 100 µM (inactive); in the assay on UACC-62 it was > 100 µM (inactive); in the assay with UO-31, 42.5 µM (inactive).

With `C[C@]12CC[C@@H]3c4ccc(OC(=O)c5ccccc5)cc4CC[C@H]3[C@@H]1CCC2OC(=O)c1cccc2c(=O)c3ccccc3[nH]c12` (stereo partly drawn), the GI50 was 17.5 µM (inactive) in the assay on 786-0; 14.2 µM (inactive) in the assay with A549; 18.2 µM (inactive) with BT-549; 16.9 µM (inactive) in the assay with COLO 205; 9.38 µM (inactive) with EKVX; 18 µM (inactive) in the assay on HOP-92. Also, the GI50 is 7.21 µM (inactive) in the assay with HT-29; 60 µM (inactive) in the assay on K562; 12.2 µM (inactive) in the assay on MCF7; 20.8 µM (inactive) with MDA-MB-231; 63 µM (inactive) with MOLT-4; 24.5 µM (inactive) in the assay with Malme-3M. For the same compound, the GI50 in the assay on NCI-H23 was 20.8 µM (inactive); in the assay on RPMI-8226, 29.9 µM (inactive); in the assay with SK-MEL-28 it was 15.8 µM (inactive); in the assay on SNB-19 it was 27.4 µM (inactive); in the assay with SR, 25.8 µM (inactive); with U-251, 15.7 µM (inactive). Moreover, the GI50 is 13.3 µM (inactive) with UACC-62 and 27.6 µM (inactive) in the assay on UO-31.

For `C[N+]1([O-])C2CCC1CC(OC(=O)C(CO)c1ccccc1)C2` (stereo not drawn), the GI50 is > 100 µM (inactive) with 786-0; > 100 µM (inactive) in the assay on A549; > 66.5 µM (inactive) in the assay with BT-549; > 100 µM (inactive) in the assay on COLO 205; > 100 µM (inactive) in the assay on EKVX; > 63.2 µM (inactive) in the assay with HOP-92. Also, the GI50 with HT-29, with K562, with MCF7, with MDA-MB-231, with MOLT-4 and with Malme-3M was > 100 µM (inactive) throughout. In addition, the GI50 in the assay with NCI-H23 was > 33.8 µM (inactive); in the assay with RPMI-8226, > 100 µM (inactive); in the assay with SK-MEL-28, > 100 µM (inactive); with SNB-19 it was > 100 µM (inactive); in the assay on SR it was > 36.6 µM (inactive); with U-251, > 100 µM (inactive). In addition, the GI50 in the assay on UACC-62 and with UO-31 was > 100 µM (inactive) in each case.

Turning to `CC(C)(C)C1CC[C@H](O)[C@H]([C@@H](O)CC2CC(=O)N(c3ccccc3)C(=O)C2)C1` (stereo partly drawn), the GI50 with 786-0 was > 100 µM (inactive); with A549 it was 67.5 µM (inactive); with BT-549 it was 29.4 µM (inactive); in the assay with EKVX, 70 µM (inactive); in the assay with HOP-92, 23.3 µM (inactive); in the assay with HT-29, 23.1 µM (inactive). The GI50 in the assay on K562 is 54.1 µM (inactive); in the assay on MCF7, 44.2 µM (inactive); in the assay on MDA-MB-231, 67.3 µM (inactive); in the assay with MOLT-4, 38.9 µM (inactive); with Malme-3M, 65.5 µM (inactive); in the assay on NCI-H23 it was > 100 µM (inactive). Also, the GI50 is 46.2 µM (inactive) in the assay on RPMI-8226; > 100 µM (inactive) in the assay with SK-MEL-28; > 100 µM (inactive) in the assay on SNB-19; 40.9 µM (inactive) in the assay with SR; 55.8 µM (inactive) in the assay on U-251; 26.6 µM (inactive) with UACC-62. Besides, the GI50 in the assay with UO-31 was 76.4 µM (inactive).

On to `COc1ccc(Cl)cc1NC(=O)c1cccc([N+](=O)[O-])c1O`, for which the GI50 with 786-0 is 16.8 µM (inactive); in the assay on A549, 11.2 µM (inactive); in the assay with BT-549, 4.37 µM (inactive); in the assay with COLO 205 it was 13.5 µM (inactive); with EKVX, 9.82 µM (inactive); with HOP-92 it was 3 µM (inactive). In addition, the GI50 in the assay with HT-29 was 19.8 µM (inactive); with K562 it was 32.1 µM (inactive); in the assay on MCF7 it was 20.9 µM (inactive); in the assay on MDA-MB-231, 24.8 µM (inactive); with MOLT-4, 16.8 µM (inactive); in the assay on Malme-3M, 4.97 µM (inactive). The GI50 in the assay with NCI-H23 is 10.4 µM (inactive); with RPMI-8226, 5.07 µM (inactive); with SK-MEL-28, 11.7 µM (inactive); with SNB-19, 8.97 µM (inactive); in the assay on SR, 17.5 µM (inactive); in the assay on U-251 it was 11.9 µM (inactive). Also, the GI50 with UACC-62 was 6.82 µM (inactive); with UO-31, 7.35 µM (inactive).
